How the values were obtained:
[1] = Study on stability of salts (chemical stability by HPLC); assay type: physicochemical
[2] = Study on hygroscopicity by dynamic vapor sorption (DVS); assay type: physicochemical
Description: Hygroscopicity of sulphate, phosphate, hydrochloride, and oxalate was evaluated using a dynamic vapor sorption (DVS). The test collected percentage changes in mass of samples under a constant temperature condition of 25° C. with changes in humidity.

[3] = Research on compound microsome: prototype remaining and transformation to Atrasentan in human liver microsomes (+NADPH); assay type: in vitro ADME; settings: human liver microsome (+NADPH), 37° C.
Description: Human liver microsomes were all purchased from Rild Liver Disease Research (Shanghai) Co., Ltd.
Reagents: dimethyl sulfoxide (DMSO), acetonitrile, formic acid, and propranolol (internal standard) are all commercially available.
Instrument: Thermo Fisher Scientific LC-MS (U300 UPLC, TSQ QUANTUMN ULTRA triple quadrupole mass spectrometer).
A certain amount of compound was precisely weighed and dissolved in DMSO to prepare a 10 mM stock solution, and the stock solution was diluted with a diluent (ACN:H2O=1:1) to a 100 μM working solution, and then diluted with a 0.1 M potassium phosphate buffer solution to a 3 μM administration solution for later use. 75 μL of liver microsomes were taken and added into 925 μL of a 0.1 M potassium phosphate buffer solution to be mixed uniformly to obtain a 1.5 mg/mL liver microsome suspension, and the liver microsome suspension was pre-incubated at 37° C. for 10 minutes. Preparation at 0 o'clock: 15 μL of the above liver microsome suspension was taken and added into a 6 mM NADPH solution, 150 μL of a propranolol acetonitrile solution was added immediately for precipitation, and then 15 μL of the above administration solution was added and mixed uniformly for later use. Preparation of samples at 20 minutes and 60 minutes: 15 μL of the administration solution was taken, 15 μL of the liver microsome suspension and 15 μL of the 6 mM NADPH solution were added and mixed uniformly, and a mixture was incubated at 37° C. for 20 minutes and 60 minutes, respectively. The preparation of the above samples was carried out using dual-pore parallel operation. When the above samples are incubated to the relevant time point, 150 μL of the propranolol acetonitrile solution was added to terminate the reaction. All the above samples were centrifuged at 4000 rpm for 5 minutes, and 100 μL of a supernatant was taken, added into 100 μL of ultrapure water and mixed uniformly for LC-MS/MS analysis. LC-MS/MS detection conditions are as follows:
Chromatographic column: Waters ACQUITY™ PREMIER HSS T3, 50*2.1 mm, 1.8 μm.
Mobile phase: water (0.1% formic acid)—acetonitrile. Perform gradient elution according to the table below.
An initial 0 o'clock was taken as 100%, a relative residual content of the drug at each time point was calculated, and each time point of Atrasentan was taken as 100% to calculate the relative amount of transformation of the compound in the embodiment to Atrasentan.

[4] = Pharmacokinetic study of compound in rats (Embodiment 14), intragastric administration; assay type: in vivo; settings: SD rats
Source text: SD rats: male, 200-300 g, purchased from Beijing Vital River Laboratory Animal Technology Co., Ltd.
Reagents: dimethyl sulfoxide (DMSO), polyethylene glycol 400 (PEG-400), normal saline, heparin, acetonitrile, formic acid, and propranolol (internal standard) are all commercially available.
Instrument: Thermo Fisher Scientific LC-MS/MS (U300 UPLC, TSQ QUANTUMN ULTRA triple quadrupole mass spectrometer).
The compound was weighed and dissolved in a DMSO-PEG-400-normal saline (5:60:35, v/v/v) system. After intragastric administration to rats, 200 μL of venous blood was collected in a sodium-fluoride heparinized EP tube at 15 minutes, 30 minutes, 1 hour, 2 hours, 5 hours, 7 hours, and 24 hours after administration and centrifuged at 12000 rpm for 2 minutes. Plasma was taken and frozen and preserved at −80° C. for testing. A certain amount of samples for test was precisely weighed and dissolved in DMSO to 2 mg/mL as a stock solution. An appropriate amount of compound stock solution was accurately sucked, and diluted by adding acetonitrile to prepare a standard series solution. 20 μL of each of the above standard series solution was accurately sucked, 180 μL of blank plasma was added, and vortex mixing was performed to prepare plasma samples equivalent to plasma concentrations of 1 ng/mL, 3 ng/mL, 5 ng/mL, 10 ng/mL, 30 ng/mL, 100 ng/mL, 300 ng/mL, 1000 ng/mL, and 3000 ng/mL. […]

Compound | Stability (in words) ([1]; 25° C./60% RH and 40° C./75% RH, one week) | Purity (area %) ([1]; 25° C./60% RH, one week) | Purity (area %) ([1]; 40° C./75% RH, one week) | Purity (area %) ([1]; Start) | Hygroscopicity (in words) ([2]; 25° C.) | Vapor sorption ([2]; 25° C./80% RH) [%] | Prototype remaining quantity (%) Mean ([3]; time 0 min (taken as 100%)) [%] | Prototype remaining quantity (%) Mean ([3]; time 20 min) [%] | Prototype remaining quantity (%) Mean ([3]; time 60 min) [%] | Absorption after intragastric administration compared with Atrasentan (in words) [4] | Exposure level in rats compared with the same dosage of Atrasentan (in words) [4]
CCCCN(CCCC)C(=O)CN1C[C@H](c2ccc3c(c2)OCO3)[C@@H](C(=O)OC(C)OC(=O)OC(C)C)[C@@H]1c1ccc(OC)cc1 (some centres unmarked) [Phosphate] | good stability | 98.81 | 95.49 | 99.29 | lower hygroscopicity | 1.52 | – | – | – | – | –
CCCCN(CCCC)C(=O)CN1C[C@H](c2ccc3c(c2)OCO3)[C@@H](C(=O)OC(C)OC(=O)OC2CC2)[C@@H]1c1ccc(OC)cc1 (stereo partly drawn) [Compound 7, 1-[(cyclopropoxycarbonyl)oxy]ethyl-(2R,3R,4S)-4-(benzo[d][1,3]dioxolane-5-yl)-1-[2-(dibutylamino)-2-oxoethyl]-2-(4-methoxyphenyl)pyrrolidine-3-carboxylate] | – | – | – | – | – | – | 100.0 | 0.10 | 0.47 | not as good as that of Atrasentan | significantly lower than that of the same dosage of Atrasentan
